Laboratory results taken from patent US20070128217A1 (priority 2003, published 2007).

Assays:
[1] = test system: control sera (pooled serum of ten healthy LUMC hospital workers; commercial negative donor pooled serum from the Dutch bloodbank); assay type: binding, human; set-up: Binding of Control serum LUMC to linear peptides / Binding of Control serum Blood-bank to linear peptides / Binding of Control serum LUMC to looped peptides / Binding of Control Serum Blood-Bank to Looped peptides / Binding of Control serum LUMC to linear peptides of the protein M of SARS-CoV Urbani / Binding of Control serum Blood-bank to linear peptides of the protein M of SARS-CoV Urbani / Binding of Control serum LUMC to looped peptides of the protein M of SARS-CoV Urbani / Binding of Control Serum Blood-Bank to Looped peptides of the protein M of SARS-CoV Urbani: unit not given here
[2] = test system: rabbit serum obtained by immunizing a rabbit with the SARS-CoV strain Frankfurt 1; assay type: binding; set-up: Binding of a rabbit serum to linear peptides / Binding of a rabbit serum to looped peptides / Rabbit serum linear peptides / Rabbit serum looped peptides / Binding of a rabbit serum to linear peptides of protein N of SARS-CoV Urbani (Rabbit serum linear peptides) / Binding of a rabbit serum to looped/cyclic peptides of protein N of SARS-CoV Urbani (Rabbit serum looped peptides): unit not given here
[3] = test system: recombinant human anti-SARS-CoV antibody 03-018; assay type: binding; set-up: Binding of antibody 03-018 to linear peptides of the N protein of SARS-CoV Urbani / Binding of antibody 03-018 to looped/cyclic peptides of the N protein of SARS-CoV Urbani: unit not given here
[4] = test system: antibodies in sera from SARS patients (sera 1a, 1b, 2, 6, 37, 62, London, SARS-yellow, SARS-green); assay type: binding, human; set-up: Binding of serum 6 to linear peptides of protein X1 of SARS-CoV Urbani / Binding of serum 37 to linear peptides of protein X1 of SARS-CoV Urbani / Binding of serum 6 to looped/cyclic peptide (PEPSCAN-ELISA) / Binding of serum 37 to looped/cyclic peptide (PEPSCAN-ELISA) / Binding of serum 37 to looped/cyclic peptides of protein X1 of SARS-CoV Urbani / Binding of serum 6 to linear peptides of protein X2 / Binding of serum 37 to linear peptides of protein X2 / Binding of serum 37 to looped/cyclic peptides of protein X2 of SARS-CoV Urbani / Binding of serum 6 to linear peptides of protein M of SARS-CoV Urbani / Binding of serum 37 to linear peptides of protein M of SARS-CoV Urbani / Binding of serum 6 to looped/cyclic peptides of protein M of SARS-CoV Urbani / Binding of serum 37 to looped/cyclic peptides of protein M of SARS-CoV Urbani / Binding of serum 6 to linear peptides of protein X3 of SARS-CoV Urbani / Binding of serum 37 to linear peptides of protein X3 of SARS-CoV Urbani / Binding of serum 37 to looped/cyclic peptides of protein X3 of SARS-CoV Urbani / Binding of serum 6 to linear peptides of protein X4 of SARS-CoV Urbani / Binding of serum 37 to linear peptides of protein X4 of SARS-CoV Urbani / Binding of serum 37 to looped/cyclic peptides of protein X4 of SARS-CoV Urbani / Binding of serum 6 to linear peptides of protein X5 of SARS-CoV Urbani / Binding of serum 37 to linear peptides of protein X5 of SARS-CoV Urbani / Binding of serum 37 to looped/cyclic peptides of protein X5 of SARS-CoV Urbani / Binding of serum 6 to linear peptides of protein N of SARS-CoV Urbani / Binding of serum 37 to linear peptides of protein N of SARS-CoV Urbani / Binding of serum 6 to linear peptide (PEPSCAN-ELISA) / Binding of serum 1a to looped/cyclic peptides of protein N of SARS-CoV Urbani / Binding of serum 1b to looped/cyclic peptides of protein N of SARS-CoV Urbani / Binding of serum 2 to looped/cyclic peptides of protein N of SARS-CoV Urbani / Binding of serum 6 to looped/cyclic peptides of protein N of SARS-CoV Urbani / Binding of serum 37 to looped/cyclic peptides of protein N of SARS-CoV Urbani / Binding of serum 62 to looped/cyclic peptides of protein N of SARS-CoV Urbani / Binding of serum London to looped/cyclic peptides of protein N of SARS-CoV Urbani / Binding of serum SARS-green to looped/cyclic peptides of protein N of SARS-CoV Urbani: unit not given here

Sequence	Binding of a rabbit serum to linear peptides of protein N of SARS-CoV Urbani (Rabbit serum linear peptides) [2]	Binding of a rabbit serum to looped/cyclic peptides of protein N of SARS-CoV Urbani (Rabbit serum looped peptides) [2]	Binding of antibody 03-018 to linear peptides of the N protein of SARS-CoV Urbani [3]	Binding of antibody 03-018 to looped/cyclic peptides of the N protein of SARS-CoV Urbani [3]	Binding of serum 1a to linear peptides of protein N of SARS-CoV Urbani [4]	Binding of serum 1a to looped/cyclic peptides of protein N of SARS-CoV Urbani [4]	Binding of serum 1b to linear peptides of protein N of SARS-CoV Urbani [4]	Binding of serum 1b to looped/cyclic peptides of protein N of SARS-CoV Urbani [4]	Binding of serum 2 to linear peptides of protein N of SARS-CoV Urbani [4]	Binding of serum 2 to looped/cyclic peptides of protein N of SARS-CoV Urbani [4]	Binding of serum 6 to linear peptides of protein N of SARS-CoV Urbani [4]	Binding of serum 6 to looped/cyclic peptides of protein N of SARS-CoV Urbani [4]	Binding of serum 37 to linear peptides of protein N of SARS-CoV Urbani [4]	Binding of serum 37 to looped/cyclic peptides of protein N of SARS-CoV Urbani [4]	Binding of serum 62 to linear peptides of protein N of SARS-CoV Urbani [4]	Binding of serum 62 to looped/cyclic peptides of protein N of SARS-CoV Urbani [4]	Binding of serum London to linear peptides of protein N of SARS-CoV Urbani [4]	Binding of serum London to looped/cyclic peptides of protein N of SARS-CoV Urbani [4]	Binding of serum SARS-green to linear peptides of protein N of SARS-CoV Urbani [4]	Binding of serum SARS-green to looped/cyclic peptides of protein N of SARS-CoV Urbani [4]	further results
PPTEPKKDKKKKTDE	0.2	0.2	0.1	0.2	0.2	0.2	0.1	0.1	2.0	0.2	0.2	0.1	0.6	0.4	0.7	0.2	0.5	0.2	0.3	0.0	Control Serum Blood-Bank Looped peptides [1]: 0.4; Control serum Blood-bank linear peptides [1]: 0.6; Control serum LUMC linear peptides [1]: 0.7; Control serum LUMC looped peptides [1]: 0.3; Binding of serum SARS-yellow to linear peptides of protein N of SARS-CoV Urbani [4]: 0.6; Binding of serum SARS-yellow to looped/cyclic peptides of protein N of SARS-CoV Urbani [4]: 0.2
PQGLPNNTASWFTAL	0.1	0.6	0.1	0.3	0.2	0.5	0.1	0.3	0.2	0.6	0.1	0.3	0.7	1.0	0.7	0.9	0.4	0.6	0.2	0.4	Binding of Control Serum Blood-Bank to Looped peptides [1]: 0.9; Binding of Control serum Blood-bank to linear peptides [1]: 0.7; Binding of Control serum LUMC to linear peptides [1]: 0.7; Binding of Control serum LUMC to looped peptides [1]: 0.9; Binding of serum SARS-yellow to linear peptides of protein N of SARS-CoV Urbani [4]: 0.5; Binding of serum SARS-yellow to looped/cyclic peptides of protein N of SARS-CoV Urbani [4]: 0.9
PQIAQFAPSASAFFG	0.1	0.5	0.1	0.2	0.2	0.4	0.1	0.3	0.2	0.4	0.1	0.3	0.6	0.7	0.6	0.7	0.5	0.5	0.6	0.4	Control Serum Blood-Bank Looped peptides [1]: 0.8; Control serum Blood-bank linear peptides [1]: 0.7; Control serum LUMC linear peptides [1]: 0.5; Control serum LUMC looped peptides [1]: 0.7; Binding of serum SARS-yellow to linear peptides of protein N of SARS-CoV Urbani [4]: 0.6; Binding of serum SARS-yellow to looped/cyclic peptides of protein N of SARS-CoV Urbani [4]: 0.5
